Experimental data reported in the supplement of paper PMC10307832.

Experiments:
Experiment in all cases: relative viability (nuclei count vs DMSO), 5 days (fraction); higher = more cells survive
201T = test system: 201T
Method in brief: (§1)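 After 5 days of treatment, lung cancer cells in 1536-well plates were fixed and stained in a single step (final 0.05% Triton X-100, 1% formaldehyde, 1 ug/ml Hoechst) and their nuclei counted on 4× images. Treatment had been applied by pin tool the day after seeding as one drug alone or as a fixed anchor-drug dose with five library-drug doses (not always all listed) in √10 steps. Relative viability is the nuclei count of treated wells divided by that of vehicle wells, and values are medians of duplicate plates.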

PC-14 = test system: PC-14
Method in brief: as §1

NCI-H23 = test system: NCI-H23
Method in brief: as §1

NCI-H1793 = test system: NCI-H1793
Method in brief: as §1

NCI-H358 = test system: NCI-H358
Method in brief: as §1

EMC-BAC-2 = test system: EMC-BAC-2
Method in brief: as §1

NCI-H1755 = test system: NCI-H1755
Method in brief: as §1

SK-MES-1 = test system: SK-MES-1
Method in brief: as §1

HCC-366 = test system: HCC-366
Method in brief: as §1

NCI-H1437 = test system: NCI-H1437
Method in brief: as §1

NCI-H1395 = test system: NCI-H1395
Method in brief: as §1

NCI-H650 = test system: NCI-H650
Method in brief: as §1

NCI-H2342 = test system: NCI-H2342
Method in brief: as §1

COR-L 105 = test system: COR-L 105
Method in brief: as §1

NCI-H2347 = test system: NCI-H2347
Method in brief: as §1

NCI-H2023 = test system: NCI-H2023
Method in brief: as §1

COR-L23 = test system: COR-L23
Method in brief: as §1

HCC-15 = test system: HCC-15
Method in brief: as §1

NCI-H1792 = test system: NCI-H1792
Method in brief: as §1

LC-2-ad = test system: LC-2-ad
Method in brief: as §1

NCI-H1915 = test system: NCI-H1915
Method in brief: as §1

NCI-H2009 = test system: NCI-H2009
Method in brief: as §1

CCNC(=O)c1noc(-c2cc(C(C)C)c(O)cc2O)c1-c1ccc(CN2CCOCC2)cc1 [Luminespib] + Nc1ncn([C@H]2C[C@H](O)[C@@H](CO)O2)c(=O)n1 [Decitabine] (partner 2 µM)
relative viability (201T; first compound 0.002 µM): 0.832 | relative viability (201T; first compound 0.006325 µM): 0.867 | relative viability (201T; first compound 0.02 µM): 0.844 | relative viability (201T; first compound 0.06325 µM): 0.811 | relative viability (201T; first compound 0.2 µM): 0.827 | relative viability (PC-14; first compound 0.002 µM): 0.23 | relative viability (PC-14; first compound 0.006325 µM): 0.21 | relative viability (PC-14; first compound 0.02 µM): 0.123 | relative viability (PC-14; first compound 0.06325 µM): 0.076 | relative viability (PC-14; first compound 0.2 µM): 0.0786 | relative viability (NCI-H23; first compound 0.002 µM): 0.285 | relative viability (NCI-H23; first compound 0.006325 µM): 0.346 | relative viability (NCI-H23; first compound 0.02 µM): 0.265 | relative viability (NCI-H23; first compound 0.06325 µM): 0.164 | relative viability (NCI-H23; first compound 0.2 µM): 0.164 | relative viability (NCI-H1793; first compound 0.002 µM): 0.499 | relative viability (NCI-H1793; first compound 0.006325 µM): 0.457 | relative viability (NCI-H1793; first compound 0.02 µM): 0.369 | relative viability (NCI-H1793; first compound 0.06325 µM): 0.151 | relative viability (NCI-H1793; first compound 0.2 µM): 0.185 | relative viability (NCI-H358; first compound 0.002 µM): 0.217 | relative viability (NCI-H358; first compound 0.006325 µM): 0.217 | relative viability (NCI-H358; first compound 0.02 µM): 0.178 | relative viability (NCI-H358; first compound 0.06325 µM): 0.0688 | relative viability (NCI-H358; first compound 0.2 µM): 0.0584 | relative viability (EMC-BAC-2; first compound 0.002 µM): 0.995 | relative viability (EMC-BAC-2; first compound 0.02 µM): 0.783 | relative viability (EMC-BAC-2; first compound 0.06325 µM): 0.564 | relative viability (EMC-BAC-2; first compound 0.2 µM): 0.237 | relative viability (NCI-H1755; first compound 0.002 µM): 0.673 | relative viability (NCI-H1755; first compound 0.006325 µM): 0.691 | relative viability (NCI-H1755; first compound 0.02 µM): 0.696 | relative viability (NCI-H1755; first compound 0.06325 µM): 0.719 | relative viability (NCI-H1755; first compound 0.2 µM): 0.649 | relative viability (SK-MES-1; first compound 0.002 µM): 0.392 | relative viability (SK-MES-1; first compound 0.006325 µM): 0.385 | relative viability (SK-MES-1; first compound 0.02 µM): 0.213 | relative viability (SK-MES-1; first compound 0.06325 µM): 0.146 | relative viability (SK-MES-1; first compound 0.2 µM): 0.147 | relative viability (HCC-366; first compound 0.002 µM): 0.327 | relative viability (HCC-366; first compound 0.006325 µM): 0.359 | relative viability (HCC-366; first compound 0.02 µM): 0.31 | relative viability (HCC-366; first compound 0.06325 µM): 0.0527 | relative viability (HCC-366; first compound 0.2 µM): 0.038 | relative viability (NCI-H1437; first compound 0.002 µM): 0.606 | relative viability (NCI-H1437; first compound 0.006325 µM): 0.605 | relative viability (NCI-H1437; first compound 0.02 µM): 0.64 | relative viability (NCI-H1437; first compound 0.06325 µM): 0.428 | relative viability (NCI-H1437; first compound 0.2 µM): 0.229 | relative viability (NCI-H1395; first compound 0.002 µM): 0.745 | relative viability (NCI-H1395; first compound 0.006325 µM): 0.694 | relative viability (NCI-H1395; first compound 0.02 µM): 0.634 | relative viability (NCI-H1395; first compound 0.06325 µM): 0.382 | relative viability (NCI-H1395; first compound 0.2 µM): 0.357 | relative viability (NCI-H650; first compound 0.002 µM): 0.282 | relative viability (NCI-H650; first compound 0.006325 µM): 0.354 | relative viability (NCI-H650; first compound 0.02 µM): 0.307 | relative viability (NCI-H650; first compound 0.06325 µM): 0.252 | relative viability (NCI-H650; first compound 0.2 µM): 0.0854 | relative viability (NCI-H2342; first compound 0.002 µM): 0.648 | relative viability (NCI-H2342; first compound 0.006325 µM): 0.82 | relative viability (NCI-H2342; first compound 0.02 µM): 0.546 | relative viability (NCI-H2342; first compound 0.06325 µM): 0.821 | relative viability (NCI-H2342; first compound 0.2 µM): 0.503 | relative viability (COR-L 105; first compound 0.002 µM): 0.674 | relative viability (COR-L 105; first compound 0.006325 µM): 0.654 | relative viability (COR-L 105; first compound 0.02 µM): 0.567 | relative viability (COR-L 105; first compound 0.06325 µM): 0.234 | relative viability (COR-L 105; first compound 0.2 µM): 0.334 | relative viability (NCI-H2347; first compound 0.002 µM): 0.603 | relative viability (NCI-H2347; first compound 0.006325 µM): 0.567 | relative viability (NCI-H2347; first compound 0.02 µM): 0.656 | relative viability (NCI-H2347; first compound 0.06325 µM): 0.431 | relative viability (NCI-H2347; first compound 0.2 µM): 0.373 | relative viability (NCI-H2023; first compound 0.002 µM): 0.242 | relative viability (NCI-H2023; first compound 0.006325 µM): 0.218 | relative viability (NCI-H2023; first compound 0.02 µM): 0.136 | relative viability (NCI-H2023; first compound 0.06325 µM): 0.0602 | relative viability (NCI-H2023; first compound 0.2 µM): 0.0539 | relative viability (COR-L23; first compound 0.002 µM): 0.502 | relative viability (COR-L23; first compound 0.006325 µM): 0.374 | relative viability (COR-L23; first compound 0.02 µM): 0.353 | relative viability (COR-L23; first compound 0.06325 µM): 0.0888 | relative viability (COR-L23; first compound 0.2 µM): 0.0903 | relative viability (HCC-15; first compound 0.002 µM): 0.695 | relative viability (HCC-15; first compound 0.006325 µM): 0.565 | relative viability (HCC-15; first compound 0.02 µM): 0.73 | relative viability (HCC-15; first compound 0.06325 µM): 0.144 | relative viability (HCC-15; first compound 0.2 µM): 0.14 | relative viability (NCI-H1792; first compound 0.002 µM): 0.521 | relative viability (NCI-H1792; first compound 0.006325 µM): 0.458 | relative viability (NCI-H1792; first compound 0.02 µM): 0.429 | relative viability (NCI-H1792; first compound 0.06325 µM): 0.078 | relative viability (NCI-H1792; first compound 0.2 µM): 0.0722 | relative viability (LC-2-ad; first compound 0.002 µM): 0.886 | relative viability (LC-2-ad; first compound 0.006325 µM): 0.766 | relative viability (LC-2-ad; first compound 0.02 µM): 0.754 | relative viability (LC-2-ad; first compound 0.06325 µM): 0.778 | relative viability (LC-2-ad; first compound 0.2 µM): 0.786 | relative viability (NCI-H1915; first compound 0.002 µM): 0.258 | relative viability (NCI-H1915; first compound 0.006325 µM): 0.278 | relative viability (NCI-H1915; first compound 0.02 µM): 0.254 | relative viability (NCI-H1915; first compound 0.06325 µM): 0.24 | relative viability (NCI-H1915; first compound 0.2 µM): 0.21 | relative viability (NCI-H2009; first compound 0.002 µM): 0.405 | relative viability (NCI-H2009; first compound 0.006325 µM): 0.364 | relative viability (NCI-H2009; first compound 0.02 µM): 0.368 | relative viability (NCI-H2009; first compound 0.06325 µM): 0.187 | relative viability (NCI-H2009; first compound 0.2 µM): 0.135
